Test results reported in US12599130B2, “Liquid agricultural adjuvant” (Oro Agri Inc., priority 2019, dated 2026).

Tested on: not listed separately
Test: Paraffin wax solubility test
Type: physicochemical
Conditions: 2.0 g paraffin wax in 98 g solvent, 25° C., stirring at 350 rpm

Q: With `CCCCCCCCCCCC(=O)OC(C)C` [ISOPROPYL LAURATE] as the molecule, how does the “DISSOLUTION TIME” value read?
A: The value was 102 min.

Q: Which “DISSOLUTION TIME” value does the source give for `CCCCCCCCCCCC(=O)OCC(CC)CCCC` (stereo not drawn) [2-ETHYLHEXYL LAURATE] here?
A: Its value is 930 min.

Q: For `CCCCCCCCCCCC(=O)OC` [METHYL LAURATE], which “DISSOLUTION TIME” value is on record?
A: Its value is 300 min.

Q: For `CCCCCCCCCCCC(=O)OCCC(C)C` [ISOAMYL LAURATE], which “DISSOLUTION TIME” value is on record?
A: The value was 620 min.

Q: With `CCCCCCCCCCCC(=O)OCC(C)C` [ISOBUTYL LAURATE] as the molecule, how does the “DISSOLUTION TIME” value read?
A: Its value is 340 min.

Same assay, conditions: 2.0 g paraffin wax in 98 g solvent, 25° C., up to 24 hours stirring

Q: With `CC1COC(=O)O1` (stereo not drawn) [PROPYLENE CARBONATE] as the molecule, how does the OBSERVATION read?
A: Its OBSERVATION is “UNDISSOLVED”.

Q: For `CCCCCCCCCC(=O)N(C)C`, which OBSERVATION is on record?
A: The OBSERVATION was “UNDISSOLVED”.

Q: Which OBSERVATION does the source give for `OCC1CCCO1` (stereo not drawn) [TETRAHYDROFURFURAL ALCOHOL] here?
A: The OBSERVATION was “UNDISSOLVED”.

Q: Which OBSERVATION does the source give for `O=C1CCCCC1` [CYCLOHEXANONE] here?
A: Its OBSERVATION is “UNDISSOLVED”.

Q: With `C[S+](C)[O-]` [DIMETHYL SULFOXIDE] as the molecule, how does the OBSERVATION read?
A: The OBSERVATION was “UNDISSOLVED”.

Tested on: wheat
Test: Field trial: wheat cover crop burndown with glyphosate plus adjuvant at full tillering
Type: in vivo
Conditions: 14 DAT, adjuvant rate 10 g/L, glyphosate 420 g ae/ha
Method: Adjuvant x Adjuvant rate effect on wheat cover crop burndown with glyphosate at full tillering stage.
A bifactorial trial was conducted consisting of […] treatments, comprised of a combination of 10 adjuvants (factor A) and 2 adjuvants rates (factor B), plus three reference treatments (Table 6).
Prior to treatment application, two plots per block were chosen to record wheat height and tiller number per plant. In each plot, the height of the tallest and shortest plant was measured, and the tillers counted.
Herbicide application was done using a single-nozzle boom connected to a backpack CO2 pressurized system. Each plot measured 3 ft×20 ft. After 14 and 28 days of application, wheat desiccation was evaluated visually using a 0-100% scale, where 0 corresponds to absence of injury symptoms and 100% corresponds to plant death.

Q: With `N.N.O=S(=O)(O)O` [Ammonium sulfate] as the molecule, how does the “Wheat desiccation (%)” value read?
A: The value was 80%.

Same assay, conditions: 28 DAT, adjuvant rate 10 g/L, glyphosate 420 g ae/ha

Q: Which “Wheat desiccation (%)” value does the source give for `N.N.O=S(=O)(O)O` [Ammonium sulfate] here?
A: The value was 95%.
